# Results from US9351974B2, “Substituted pteridinones for the treatment of cancer” (OSI Pharmaceuticals, LLC, priority 2011, dated 2016).
# pIC50: −log10 of the molar value.
# Molecular target: T1, His-tagged full-length RSK2 (RPS6KA3) (Homo sapiens, UniProt P51812)
# T1 construct: His-tagged full-length RSK2 (RPS6KA3, Invitrogen PV3323); His; purchased Invitrogen PV3323
# Assay: RSK2 Omnia Assay for compound IC50 determination
# Type: biochemical
# Conditions: ATP 15 μM, n=2, read-out: Mean RSK2 Biochem IC50
# Summary of the method: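 Continuous fluorescence assay (ex 360/em 485 nm) of SOX-peptide (Omnia ST Peptide 6, 5 μM) phosphorylation with ATP 15 μM (Km 16.3 μM). Enzyme was […], in pH 7.5 HEPES/MgCl2 buffer with 1% DMSO. IC50 came from 11-point threefold dilutions ([…]) by four-parameter fit of initial slopes, in duplicate; Ki by Cheng-Prusoff assuming competitive inhibition.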
# T1 sequence (P51812 whole entry): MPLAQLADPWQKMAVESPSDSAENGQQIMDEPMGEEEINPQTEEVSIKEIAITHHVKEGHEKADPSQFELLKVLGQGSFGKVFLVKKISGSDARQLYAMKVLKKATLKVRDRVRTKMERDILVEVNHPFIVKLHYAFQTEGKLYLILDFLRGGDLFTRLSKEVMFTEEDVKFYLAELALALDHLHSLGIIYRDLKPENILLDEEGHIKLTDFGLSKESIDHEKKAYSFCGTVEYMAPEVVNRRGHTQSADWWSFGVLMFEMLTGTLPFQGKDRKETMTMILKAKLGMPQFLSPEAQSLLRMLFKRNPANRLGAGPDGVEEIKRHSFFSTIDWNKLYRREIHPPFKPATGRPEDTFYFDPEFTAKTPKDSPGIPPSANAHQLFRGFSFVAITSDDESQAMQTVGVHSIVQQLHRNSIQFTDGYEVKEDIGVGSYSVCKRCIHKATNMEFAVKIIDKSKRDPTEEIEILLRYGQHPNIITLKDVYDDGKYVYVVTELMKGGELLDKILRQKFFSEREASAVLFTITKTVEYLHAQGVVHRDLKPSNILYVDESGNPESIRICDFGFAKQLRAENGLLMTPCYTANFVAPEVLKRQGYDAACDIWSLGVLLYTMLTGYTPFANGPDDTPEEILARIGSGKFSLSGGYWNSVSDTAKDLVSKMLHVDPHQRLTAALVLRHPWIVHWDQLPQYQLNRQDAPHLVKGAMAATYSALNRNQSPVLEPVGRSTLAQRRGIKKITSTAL
row,pIC50,Compound
1,≥ 7.00,"COc1ccc(N2C(=O)[C@@H](C)N(C3CCOCC3)c3nc(Nc4ccc5[nH]c(=O)oc5c4)ncc32)cc1C#N [compound 197, 2-Methoxy-5-[(7R)-7-methyl-6-oxo-2-[(2-oxo-2,3-dihydro-1,3-benzoxazol-6-yl)amino]-8-(tetrahydro-2H-pyran-4-yl)-7,8-dihydropteridin-5(6H)-yl]benzonitrile]"
2,≥ 7.00,"C[C@@H]1C(=O)N(c2cccc(C#N)c2)c2cnc(Nc3ccc4c(=O)[nH]oc4c3)nc2N1C1CCCCC1 [compound 166, 3-[(7R)-8-cyclohexyl-7-methyl-6-oxo-2-[(3-oxo-2,3-dihydro-1,2-benzoxazol-6-yl)amino]-7,8-dihydropteridin-5(6H)-yl]benzonitrile]"
3,≥ 7.00,"C[C@@H]1C(=O)N(c2ccc(F)cc2)c2cnc(Nc3ccc4[nH]ncc4c3)nc2N1C1CCCCC1 [Example 24, (7R)-8-cyclohexyl-5-(4-fluorophenyl)-2-(1H-indazol-5-ylamino)-7-methyl-7,8-dihydropteridin-6(5H)-one]"
4,≥ 7.00,"C[C@@H]1C(=O)N(c2ccc(N3CCCC3)c(C#N)c2)c2cnc(Nc3cc(F)c4[nH]ncc4c3)nc2N1C1CCC(C)(C)CC1 [Example 212, 5-[(7R)-8-(4,4-dimethylcyclohexyl)-2-[(7-fluoro-1H-indazol-5-yl)amino]-7-methyl-6-oxo-7,8-dihydropteridin-5(6H)-yl]-2-(pyrrolidin-1-yl)benzonitrile]"
5,≥ 7.00,"C[C@@H]1C(=O)N(c2cccc(C#N)c2)c2cnc(Nc3ccc4[nH]nc(F)c4c3)nc2N1C1CCCCC1 [compound 115, 3-[(7R)-8-cyclohexyl-2-[(3-fluoro-1H-indazol-5-yl)amino]-7-methyl-6-oxo-7,8-dihydropteridin-5(6H)-yl]benzonitrile]"
6,≥ 7.00,"COC(=O)c1cc(N2C(=O)[C@@H](C)N(C3CCCCC3)c3nc(Nc4ccc5[nH]ncc5c4)ncc32)cs1 [compound 177, methyl 4-[(7R)-8-cyclohexyl-2-(1H-indazol-5-ylamino)-7-methyl-6-oxo-7,8-dihydropteridin-5(6H)-yl]thiophene-2-carboxylate]"
7,≥ 7.00,"CC(C)CCN1c2nc(Nc3cc(F)c4[nH]ncc4c3)ncc2N(c2ccc(OC(C)C)c(C#N)c2)C(=O)[C@H]1C [Example 93, 5-[(7R)-2-[(7-fluoro-1H-indazol-5-yl)amino]-7-methyl-8-(3-methylbutyl)-6-oxo-7,8-dihydropteridin-5(6H)-yl]-2-(propan-2-yloxy)benzonitrile]"
8,≥ 7.00,"COc1ccc(N2c3nc(Nc4cc(F)c5[nH]ncc5c4)ncc3N(c3cccc(C#N)c3)C(=O)[C@H]2C)cc1 [compound 182, 3-[(7R)-2-[(7-fluoro-1H-indazol-5-yl)amino]-8-(4-methoxyphenyl)-7-methyl-6-oxo-7,8-dihydropteridin-5(6H)-yl]benzonitrile]"
9,≥ 7.00,"COc1ccc(N2C(=O)[C@@H](C)N(C3CCOCC3)c3nc(Nc4cc(F)c5[nH]ncc5c4)ncc32)cc1C#N [compound 190, 5-[(7R)-2-[(7-fluoro-1H-indazol-5-yl)amino]-7-methyl-6-oxo-8-(tetrahydro-2H-pyran-4-yl)-7,8-dihydropteridin-5(6H)-yl]-2-methoxybenzonitrile]"
10,≥ 7.00,"CO[C@H]1CC[C@H](N2c3nc(Nc4cc(F)c5[nH]ncc5c4)ncc3N(c3cccc(C#N)c3)C(=O)[C@H]2C)CC1 [compound 224, 3-[(7R)-2-[(7-fluoro-1H-indazol-5-yl)amino]-8-(trans-4-methoxycyclohexyl)-7-methyl-6-oxo-7,8-dihydropteridin-5(6H)-yl]benzonitrile]"
11,≥ 7.00,"CO[C@H]1CC[C@H](N2c3nc(Nc4cc(F)c(O)c(F)c4)ncc3N(c3cccc(C#N)c3)C(=O)[C@H]2C)CC1 [compound 232, 3-[(7R)-2-[(3,5-difluoro-4-hydroxyphenyl)amino]-8-(trans-4-methoxycyclohexyl)-7-methyl-6-oxo-7,8-dihydropteridin-5(6H)-yl]benzonitrile]"
12,≥ 7.00,"CC[C@@H]1C(=O)N(c2ccc(N3CCOCC3)nc2)c2cnc(Nc3cc(F)c4[nH]ncc4c3)nc2N1C1CCCCC1 [compound 292, (7R)-8-cyclohexyl-7-ethyl-2-[(7-fluoro-1H-indazol-5-yl)amino]-5-[6-(morpholin-4-yl)pyridin-3-yl]-7,8-dihydropteridin-6(5H)-one]"
13,≥ 7.00,"C[C@@H]1C(=O)N(c2ccn(C)c(=O)c2)c2cnc(Nc3cnc4[nH]ncc4c3)nc2N1C1CCCCC1 [compound 175, (7R)-8-cyclohexyl-7-methyl-5-(1-methyl-2-oxo-1,2-dihydropyridin-4-yl)-2-(1H-pyrazolo[3,4-b]pyridin-5-ylamino)-7,8-dihydropteridin-6(5H)-one]"
14,< 6.00,"CC(C)CCn1c(=O)c(=O)n(-c2ccccc2)c2cnc(Nc3ccc4[nH]ncc4c3)nc21 [Example 305, 2-(1H-indazol-5-ylamino)-8-(3-methylbutyl)-5-phenyl-5,8-dihydropteridine-6,7-dione]"
15,≥ 7.00,"COc1ccc(N2C(=O)[C@@H](C)N(C3CCCCC3)c3nc(Nc4cc(F)c5[nH]ncc5c4)ncc32)cc1C#N [compound 136, 5-[(7R)-8-cyclohexyl-2-[(7-fluoro-1H-indazol-5-yl)amino]-7-methyl-6-oxo-7,8-dihydropteridin-5(6H)-yl]-2-methoxybenzonitrile]"
16,≥ 7.00,"COc1ccc(N2C(=O)[C@@H](C)N(C3CCC(F)(F)CC3)c3nc(Nc4cc(F)c5[nH]ncc5c4)ncc32)cc1OC [compound 262, (7R)-8-(4,4-difluorocyclohexyl)-5-(3,4-dimethoxyphenyl)-2-[(7-fluoro-1H-indazol-5-yl)amino]-7-methyl-7,8-dihydropteridin-6(5H)-one]"
17,< 6.00,"C[C@@H]1C(=O)N(c2cccc(C#N)c2)c2cnc(Nc3ccc4[nH]ncc4c3)nc2N1[C@H]1CC[C@@H](O)CC1 [compound 309, 3-[(7R)-8-(cis-4-hydroxycyclohexyl)-2-(1H-indazol-5-ylamino)-7-methyl-6-oxo-7,8-dihydropteridin-5(6H)-yl]benzonitrile]"
18,6.00 to 7.00,"COc1cc(Nc2ncc3c(n2)N(C2CCCCC2)[C@H](C)C(=O)N3c2cccc(C#N)c2)cc2cn[nH]c12 [compound 123, 3-[(7R)-8-cyclohexyl-2-[(7-methoxy-1H-indazol-5-yl)amino]-7-methyl-6-oxo-7,8-dihydropteridin-5(6H)-yl]benzonitrile]"
19,≥ 7.00,"COc1ccc(N2C(=O)[C@@H](C)N(C3CCCCC3)c3nc(Nc4ccc5[nH]c(=O)oc5c4)ncc32)cc1OC [compound 150, (7R)-8-cyclohexyl-5-(3,4-dimethoxyphenyl)-7-methyl-2-[(2-oxo-2,3-dihydro-1,3-benzoxazol-6-yl)amino]-7,8-dihydropteridin-6(5H)-one]"
20,6.00 to 7.00,"C[C@H]1C(=O)N(c2ccccc2)c2cnc(Nc3ccc4[nH]ncc4c3)nc2N1C1CCCC1 [Example 67, (7S)-8-cyclopentyl-2-(1H-indazol-5-ylamino)-7-methyl-5-phenyl-7,8-dihydropteridin-6(5H)-one]"
21,≥ 7.00,"CC(C)Oc1ccc(N2C(=O)[C@@H](C)N(C3CCOCC3)c3nc(Nc4ccc5[nH]c(=O)oc5c4)ncc32)cc1C#N [compound 199, 5-[(7R)-7-methyl-6-oxo-2-[(2-oxo-2,3-dihydro-1,3-benzoxazol-6-yl)amino]-8-(tetrahydro-2H-pyran-4-yl)-7,8-dihydropteridin-5(6H)-yl]-2-(propan-2-yloxy)benzonitrile]"
22,6.00 to 7.00,"CC(C)N1c2nc(Nc3ccc4[nH]ncc4c3)ncc2N(c2ccccc2)C(=O)C1C (centres unmarked) [Example 13, 2-(1H-indazol-5-ylamino)-7-methyl-5-phenyl-8-(propan-2-yl)-7,8-dihydropteridin-6(5H)-one]"
23,≥ 7.00,"CO[C@H]1CC[C@H](N2c3nc(Nc4cnc5[nH]ncc5c4)ncc3N(c3cccc(C#N)c3)C(=O)[C@H]2C)CC1 [compound 231, 3-[(7R)-8-(trans-4-methoxycyclohexyl)-7-methyl-6-oxo-2-(1H-pyrazolo[3,4-b]pyridin-5-ylamino)-7,8-dihydropteridin-5(6H)-yl]benzonitrile]"
24,≥ 7.00,"C[C@@H]1C(=O)N(c2ccc(NS(C)(=O)=O)cc2)c2cnc(Nc3ccc4[nH]ncc4c3)nc2N1C1CCCCC1 [Example 47, N-{4-[(7R)-8-cyclohexyl-2-(1H-indazol-5-ylamino)-7-methyl-6-oxo-7,8-dihydropteridin-5(6H)-yl]phenyl}methanesulfonamide]"
25,6.00 to 7.00,"CC(C)N1c2nc(Nc3ccc4c(c3)CC(=O)N4)ncc2N(c2ccccc2)C(=O)C1C (centres unmarked) [Example 94, 7-methyl-2-[(2-oxo-2,3-dihydro-1H-indol-5-yl)amino]-5-phenyl-8-(propan-2-yl)-7,8-dihydropteridin-6(5H)-one]"
26,6.00 to 7.00,"O=c1c(=O)n(C2CCCC2)c2nc(Nc3ccc4[nH]ncc4c3)ncc2n1-c1ccccc1 [Example 307, 8-cyclopentyl-2-(1H-indazol-5-ylamino)-5-phenyl-5,8-dihydropteridine-6,7-dione]"
27,≥ 7.00,"C[C@@H]1C(=O)N(c2cccc(C#N)c2)c2cnc(Nc3cc(F)c4[nH]ncc4c3)nc2N1C1CCC2(CC1)CC2 [Example 297, 3-[(7R)-2-[(7-fluoro-1H-indazol-5-yl)amino]-7-methyl-6-oxo-8-(spiro[2.5]oct-6-yl)-7,8-dihydropteridin-5(6H)-yl]benzonitrile]"
28,≥ 7.00,"COc1cc(F)cc(N2C(=O)[C@@H](C)N(C3CCCCC3)c3nc(Nc4ccc5[nH]ncc5c4)ncc32)c1 [compound 99, (7R)-8-cyclohexyl-5-(3-fluoro-5-methoxyphenyl)-2-(1H-indazol-5-ylamino)-7-methyl-7,8-dihydropteridin-6(5H)-one]"

row,Compound,pIC50
1,"(7R)-8-cyclohexyl-2-(1H-indazol-5-ylamino)-7-methyl-5-[4-(morpholin-4-yl)phenyl]-7,8-dihydropteridin-6(5H)-one [compound 126]",≥ 7.00
